Laboratory results from patent US11965039B2, “Compstatin analogues and their medical uses” (priority 2018, dated 2024).
Starred links: 1 amine or outer side, 2 acyl side, 3 side chain; linkers in the order of their positions; H or OH if unused. Positions of bridges follow the written chain, without caps; N, C: chain ends. Non-standard residues stand in square brackets, D forms with d. Residues, ends and D or L forms follow the SMILES beside them. Groups on a side chain read outwards from the residue. *: point of attachment. C20 diacid = O=C(O)CCCCCCCCCCCCCCCCCCC(=O)*; Trp(1-Me) = Cn1cc(C[C@H](N)C(=O)O)c2ccccc21; C18 diacid = O=C(O)CCCCCCCCCCCCCCCCC(=O)*; C16 diacid = O=C(O)CCCCCCCCCCCCCCC(=O)*; γGlu = O=C(O)[C@H](CCC(=O)[*:2])N[*:1]; AEEA = NCCOCCOCC(=O)O; Sar = CNCC(=O)O

What follows are molecules tested on classical complement pathway (assay: In vitro haemolysis assay (inhibition of classical complement pathway)). Conditions: human serum, sensitized sheep red blood cells; Table 3, given as upper bounds; read-out: IC50, inhibition of hemolysis.
Type: cell-based, human
How it was run: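 Compound dilutions preincubated 15 min at room temperature with diluted human serum (titrated per batch for 70-90% maximal haemolysis), then antibody-sensitized sheep RBC (10^7/well) added for 30 min at 37 °C in Tris/casein buffer, pH 7.4. Stopped with EDTA; haemolysis read at 405 nm; IC50 by 4PL fit.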

SMILES	IC50
CC[C@H](C)[C@H](NC(C)=O)C(=O)N[C@H]1CSSC[C@@H](C(=O)N[C@H](C(N)=O)[C@@H](C)O)NC(=O)[C@H](CCCNC(=N)N)NC(=O)[C@H](Cc2c[nH]cn2)NC(=O)[C@H](CCC(=O)O)NC(=O)CNC(=O)[C@H](Cc2c[nH]c3ccccc23)NC(=O)[C@H](CCC(=O)O)NC(=O)[C@H](CCC(N)=O)NC(=O)[C@H](Cc2c[nH]c3ccccc23)NC(=O)[C@H]([C@@H](C)CC)NC1=O [Compound 16] (Ac-ICIWQEWGEHRCT-NH2; disulfide 2-12)	< 100 nM
CC[C@H](C)[C@@H]1NC(=O)[C@@H](NC(=O)CN(C)C(=O)[C@H](CCC(=O)O)NC(=O)[C@H](CO)NC(C)=O)CSSC[C@@H](C(=O)N[C@H](C(=O)N[C@@H](CCC(=O)O)C(=O)N[C@@H](C)C(N)=O)[C@@H](C)O)NC(=O)[C@H](CCCNC(=N)N)NC(=O)[C@H](Cc2c[nH]cn2)NC(=O)[C@H](CCC(=O)O)NC(=O)CN(C)C(=O)[C@H](Cc2c[nH]c3ccccc23)NC(=O)[C@H](CCC(=O)O)NC(=O)[C@H](CCC(N)=O)NC(=O)[C@H](Cc2cn(C)c3ccccc23)NC1=O [Compound 89, Ac-SE[Sar]C(1)I[1-Me-Trp]QEW[Sar]EHRC(1)TEA-NH2] (Ac-SE[Sar]CI[Trp(1-Me)]QEW[Sar]EHRCTEA-NH2; disulfide 4-14)	< 100 nM
CC[C@H](C)[C@@H]1NC(=O)[C@@H](NC(=O)[C@H](Cc2ccccc2)NC(=O)[C@H](CCC(=O)O)NC(=O)[C@H](CO)NC(C)=O)CSSC[C@@H](C(=O)N(C)CC(=O)N[C@@H](CCC(=O)O)C(=O)NCC(=O)N[C@@H](C)C(=O)N[C@@H](CCCCNC(=O)COCCOCCNC(=O)CC[C@H](NC(=O)COCCOCCNC(=O)CNC(=O)CC[C@H](NC(=O)CCCCCCCCCCCCCCCCC(=O)O)C(=O)O)C(=O)O)C(N)=O)NC(=O)[C@H](CCCNC(=N)N)NC(=O)[C@H](Cc2c[nH]cn2)NC(=O)[C@H](CCC(=O)O)NC(=O)CNC(=O)[C@H](Cc2c[nH]c3ccccc23)NC(=O)[C@H](CC(=O)O)NC(=O)[C@H](CCC(N)=O)NC(=O)[C@H](Cc2cn(C)c3ccccc23)NC1=O [Compound 119] (Ac-SEFCI[Trp(1-Me)]QDWGEHRC[Sar]EGAK([AEEA-γGlu-AEEA-Gly-γGlu-C18 diacid])-NH2; disulfide 4-14)	< 100 nM
CC[C@H](C)[C@@H]1NC(=O)[C@@H](NC(=O)[C@H](Cc2ccc(O)cc2)NC(=O)[C@H](C)NC(=O)[C@H](CO)NC(=O)[C@H](CO)NC(=O)[C@H](CCC(=O)O)NC(C)=O)CSSC[C@@H](C(=O)N[C@H](C(N)=O)[C@@H](C)O)NC(=O)[C@H](CCCNC(=N)N)NC(=O)[C@H](Cc2c[nH]cn2)NC(=O)[C@H](CCC(=O)O)NC(=O)CNC(=O)[C@H](Cc2c[nH]c3ccccc23)NC(=O)[C@H](CC(=O)O)NC(=O)[C@H](CCC(N)=O)NC(=O)[C@H](Cc2c[nH]c3ccccc23)NC1=O [Compound 10] (Ac-ESSAYCIWQDWGEHRCT-NH2; disulfide 6-16)	< 100 nM
CC[C@H](C)[C@H](NC(C)=O)C(=O)N[C@H]1CSSC[C@@H](C(=O)N[C@@H](CO)C(N)=O)NC(=O)[C@H](CCCNC(=N)N)NC(=O)[C@H](Cc2c[nH]cn2)NC(=O)[C@H](CCC(=O)O)NC(=O)CNC(=O)[C@H](Cc2c[nH]c3ccccc23)NC(=O)[C@H](CC(=O)O)NC(=O)[C@H](CCC(N)=O)NC(=O)[C@H](Cc2c[nH]c3ccccc23)NC(=O)[C@H]([C@@H](C)CC)NC1=O [Compound 21] (Ac-ICIWQDWGEHRCS-NH2; disulfide 2-12)	< 100 nM
CC[C@H](C)[C@H](NC(C)=O)C(=O)N[C@H]1CSSC[C@@H](C(=O)N[C@H](C(=O)N[C@@H](CCC(=O)O)C(=O)NCC(=O)N[C@@H](CCC(=O)O)C(=O)N[C@@H](CCCCNC(=O)COCCOCCNC(=O)COCCOCCNC(=O)CC[C@H](NC(=O)CCCCCCCCCCCCCCC(=O)O)C(=O)O)C(N)=O)[C@@H](C)O)NC(=O)[C@H](CCCNC(=N)N)NC(=O)[C@H](Cc2c[nH]cn2)NC(=O)[C@H](CCC(=O)O)NC(=O)CNC(=O)[C@H](Cc2c[nH]c3ccccc23)NC(=O)[C@H](CC(=O)O)NC(=O)[C@H](CCC(N)=O)NC(=O)[C@H](Cc2c[nH]c3ccccc23)NC(=O)[C@H]([C@@H](C)CC)NC1=O [Compound 94] (Ac-ICIWQDWGEHRCTEGEK([AEEA-AEEA-γGlu-C16 diacid])-NH2; disulfide 2-12)	< 500 nM
CC[C@H](C)[C@@H]1NC(=O)[C@@H](NC(=O)[C@H](Cc2ccc(O)cc2)NC(=O)[C@H](CCC(=O)O)NC(=O)[C@H](CO)NC(C)=O)CSSC[C@@H](C(=O)N(C)CC(=O)N[C@@H](CCC(=O)O)C(=O)NCC(=O)N[C@@H](C)C(=O)N[C@@H](CCCCNC(=O)CC[C@H](NC(=O)CNC(=O)CC[C@H](NC(=O)CCCCCCCCCCCCCCCCC(=O)O)C(=O)O)C(=O)O)C(N)=O)NC(=O)[C@H](CCCNC(=N)N)NC(=O)[C@H](Cc2c[nH]cn2)NC(=O)[C@H](CCC(=O)O)NC(=O)CNC(=O)[C@H](Cc2c[nH]c3ccccc23)NC(=O)[C@H](CC(=O)O)NC(=O)[C@H](CCC(N)=O)NC(=O)[C@H](Cc2cn(C)c3ccccc23)NC1=O [Compound 112] (Ac-SEYCI[Trp(1-Me)]QDWGEHRC[Sar]EGAK([γGlu-Gly-γGlu-C18 diacid])-NH2; disulfide 4-14)	< 500 nM
CC[C@H](C)[C@@H]1NC(=O)[C@@H](NC(=O)[C@H](Cc2ccccc2)NC(=O)[C@H](CCC(=O)O)NC(=O)[C@H](CO)NC(C)=O)CSSC[C@@H](C(=O)N(C)CC(=O)N[C@@H](CCC(=O)O)C(=O)NCC(=O)N[C@@H](CCC(=O)O)C(=O)N[C@@H](CO)C(=O)N[C@@H](CCC(=O)O)C(=O)N[C@@H](CO)C(=O)N[C@@H](CCCCNC(=O)CC[C@H](NC(=O)CCCCCCCCCCCCCCCCC(=O)O)C(=O)O)C(N)=O)NC(=O)[C@H](CCCNC(=N)N)NC(=O)[C@H](Cc2c[nH]cn2)NC(=O)[C@H](CCC(=O)O)NC(=O)CNC(=O)[C@H](Cc2c[nH]c3ccccc23)NC(=O)[C@H](CC(=O)O)NC(=O)[C@H](CCC(N)=O)NC(=O)[C@H](Cc2cn(C)c3ccccc23)NC1=O [Compound 141] (Ac-SEFCI[Trp(1-Me)]QDWGEHRC[Sar]EGESESK([γGlu-C18 diacid])-NH2; disulfide 4-14)	< 100 nM
CC[C@H](C)[C@@H]1NC(=O)[C@@H](NC(=O)[C@H](Cc2ccc(O)cc2)NC(C)=O)CSSC[C@@H](C(=O)N[C@H](C(N)=O)[C@@H](C)O)NC(=O)[C@H](CCCNC(=N)N)NC(=O)[C@H](Cc2c[nH]cn2)NC(=O)[C@H](CCC(=O)O)NC(=O)CNC(=O)[C@H](Cc2c[nH]c3ccccc23)NC(=O)[C@H](CC(=O)O)NC(=O)[C@H](CCC(N)=O)NC(=O)[C@H](Cc2c[nH]c3ccccc23)NC1=O [Compound 9] (Ac-YCIWQDWGEHRCT-NH2; disulfide 2-12)	< 100 nM
CC[C@H](C)[C@H](NC(=O)[C@H](C)NC(=O)[C@H](CO)NC(C)=O)C(=O)N[C@H]1CSSC[C@@H](C(=O)N[C@H](C(=O)N[C@@H](CCC(=O)O)C(=O)NCC(N)=O)[C@@H](C)O)NC(=O)[C@H](CCCNC(=N)N)NC(=O)[C@H](Cc2c[nH]cn2)NC(=O)[C@H](CCC(=O)O)NC(=O)CNC(=O)[C@H](Cc2c[nH]c3ccccc23)NC(=O)[C@H](CC(=O)O)NC(=O)[C@H](CCC(N)=O)NC(=O)[C@H](Cc2c[nH]c3ccccc23)NC(=O)[C@H]([C@@H](C)CC)NC1=O [Compound 42] (Ac-SAICIWQDWGEHRCTEG-NH2; disulfide 4-14)	< 250 nM
CC[C@H](C)[C@@H]1NC(=O)[C@@H](NC(=O)[C@H](Cc2ccccc2)NC(C)=O)CSSC[C@@H](C(=O)N[C@H](C(N)=O)[C@@H](C)O)NC(=O)[C@H](CCCNC(=N)N)NC(=O)[C@H](Cc2c[nH]cn2)NC(=O)[C@H](CCC(=O)O)NC(=O)CNC(=O)[C@H](Cc2c[nH]c3ccccc23)NC(=O)[C@H](CC(=O)O)NC(=O)[C@H](CCC(N)=O)NC(=O)[C@H](Cc2c[nH]c3ccccc23)NC1=O [Compound 23] (Ac-FCIWQDWGEHRCT-NH2; disulfide 2-12)	< 100 nM
CC[C@H](C)[C@@H]1NC(=O)[C@@H](NC(=O)[C@H](Cc2ccccc2)NC(=O)[C@H](CCC(=O)O)NC(C)=O)CSSC[C@@H](C(=O)N[C@@H](CCC(=O)O)C(=O)NCC(=O)N[C@@H](CCC(=O)O)C(=O)N[C@@H](CCCCNC(=O)CC[C@H](NC(=O)CNC(=O)CC[C@H](NC(=O)CCCCCCCCCCCCCCCCC(=O)O)C(=O)O)C(=O)O)C(N)=O)NC(=O)[C@H](CCCNC(=N)N)NC(=O)[C@H](Cc2c[nH]cn2)NC(=O)[C@H](CCC(=O)O)NC(=O)CNC(=O)[C@H](Cc2c[nH]c3ccccc23)NC(=O)[C@H](CC(=O)O)NC(=O)[C@H](CCC(N)=O)NC(=O)[C@H](Cc2cn(C)c3ccccc23)NC1=O [Compound 134] (Ac-EFCI[Trp(1-Me)]QDWGEHRCEGEK([γGlu-Gly-γGlu-C18 diacid])-NH2; disulfide 3-13)	< 100 nM
CC[C@H](C)[C@@H]1NC(=O)[C@@H](NC(=O)[C@H](Cc2ccccc2)NC(=O)[C@H](CCC(=O)O)NC(=O)[C@H](CO)NC(C)=O)CSSC[C@@H](C(=O)N(C)CC(=O)N[C@@H](CCC(=O)O)C(=O)NCC(=O)N[C@@H](CCC(=O)O)C(=O)NCCOCCOCC(=O)NCCOCCOCC(=O)N[C@@H](CCCCNC(=O)CC[C@H](NC(=O)CNC(=O)CC[C@H](NC(=O)CCCCCCCCCCCCCCCCCCC(=O)O)C(=O)O)C(=O)O)C(N)=O)NC(=O)[C@H](CCCNC(=N)N)NC(=O)[C@H](Cc2c[nH]cn2)NC(=O)[C@H](CCC(=O)O)NC(=O)CNC(=O)[C@H](Cc2c[nH]c3ccccc23)NC(=O)[C@H](CC(=O)O)NC(=O)[C@H](CCC(N)=O)NC(=O)[C@H](Cc2cn(C)c3ccccc23)NC1=O [Compound 128] (Ac-SEFCI[Trp(1-Me)]QDWGEHRC[Sar]EGE[AEEA][AEEA]K([γGlu-Gly-γGlu-C20 diacid])-NH2; disulfide 4-14)	< 100 nM

Same assay, conditions: human serum, sensitized sheep red blood cells; Table 4, valine 3 vs isoleucine 3 pairs; read-out: CP hemolysis IC50

SMILES	IC50
CC[C@H](C)[C@H](NC(C)=O)C(=O)N[C@H]1CSSC[C@@H](C(=O)N[C@@H](CO)C(N)=O)NC(=O)[C@H](CCCNC(=N)N)NC(=O)[C@H](Cc2c[nH]cn2)NC(=O)[C@H](CCC(=O)O)NC(=O)CNC(=O)[C@H](Cc2c[nH]c3ccccc23)NC(=O)[C@H](CC(=O)O)NC(=O)[C@H](CCC(N)=O)NC(=O)[C@H](Cc2c[nH]c3ccccc23)NC(=O)[C@H]([C@@H](C)CC)NC1=O [Compound 21] (Ac-ICIWQDWGEHRCS-NH2; disulfide 2-12)	77 nM
